Data as given in patent US20020045231A1, “Catalytic antibodies which hydrolyze primary amides and methods for eliciting such antibodies” (priority 1999, published 2002).
Square brackets hold non-standard residues; d marks the D form. Peptide text beside a SMILES is read from it. * marks the point of attachment. Sta = CC(C)C[C@H](N)[C@@H](O)CC(=O)O; Isovaleryl = CC(C)CC(=O)*

Legend:
13D11 [1] = assay: Inhibition of 13D11-catalyzed hydrolysis by haptens/inhibitors; assay type: biochemical, mouse
Description: Antibody 13D11 (14.5 μM) was re-screened for activity toward 10 (nominally 500 μM) in the absence and presence of 63 μM (RT-2 hapten)(D/L mixture).
Until this point, 13D11 antibody had been purified by Protein A and DEAE chromatography. To determine whether the activity toward 10 was due to a contaminating enzyme, 13D11 was further purified on a Mono Q column (Pharmacia) by FPLC.
Hapten Ki was determined by quantitating the effect of the concentration of 1b or 1c on the velocity of 13D11 hydrolysis of 2b. Rates obtained at fixed antibody and substrate concentrations were fitted to the equation; V1/Vo=(2[Ab]−[l]−Ki′+{([l]+Ki′−2[Ab])^2+4Ki′2[Ab]}^0.5)/4[Ab], where Vi and Vo are, respectively, the velocities in the presence and absence of hapten, 2[Ab] is the total concentration of antibody combining sites, [l] is hapten concentration, Ki′=Ki/(1+[S]/Km), and Ki is the inhibition constant (S. Cha, Biochem. Pharmacol. 1975, 24, 2177).
Control experiments verified that the hydrolytic activity was not due to a contaminating protease. […] (The (L)-hapten spatially corresponds to the (D)-amide substrate.) The inhibition constant, Ki, was determined by an HPLC assay to be 14.0 (±+1.6) μM.
The substrate specificity of 13D11 was more rigorously determined by monitoring its activity towards the dansylated amides 9 and 10, dansylated esters 11 and 12, acetylated amides 13 and 14, and acetylated esters 15 and 16. The esterolytic activity of 13D11 with the dansylated or acetylated esters (45 μM-1.0 mM) was examined at 25° C. in an assay mixture containing MTEN, 0.1 mM EDTA, 0.1 mM PMSF, 0.01% NaN3, and 13D11 (7-14 μM). Aliquots were removed from the incubation mixtures every hour for 4 hours and kept in ice prior to analysis. The dansylated esters were analyzed by TLC while the acetylated esters were subjected to HPLC analysis. […] The observed esterase activity may be due to a trace of a contaminating enzyme in the antibody preparation.
The amidase activity of 13D11 was likewise examined using the same buffer system as the one mentioned above in the presence of 13D11 (17 μM), and the acetylated amide 13 or 14 (0.5-1.0 mM). […] The ability of 13D11 to discriminate between the dansylated amides 9 and 10 was investigated by determining the formation of the hydrolysis product by TLC. The reaction samples containing 150 μM of either amide 9 or 100 30 μM 13D11, with or without hapten 5 (0.5 mM) in the above buffer system were assayed after 5 days of incubation at 25° C. […] Thus, the activity of the catalytic antibody requires the alkyl linker that was present during immunization, and has a stereospecificity opposite of known natural proteolytic enzymes.
An important control in the examination of the catalytic activity of 13D11 IgG molecule is the retention of the haptenic and substrate binding abilities by its Fab′ fragment. Accordingly, the amidase activities of 13D11 (whole IgG molecule) and the 13D11 Fab′ fragment were compared. The reaction mixtures contained MTEN, 1 mM EDTA, 0.1 mM PMSF, 0.01% NaN3, 150 μM dansylated amide 9 or 100 μM 13D11 (IgG) or Fab′, with or without (assumed) hapten 5 (0.5 mM). […] The esterase activity for the Fab′ fragment was also examined in the above buffer system containing 100 μM of either ester 11 or 12, and 7 μM 13D11 (Fab′). Aliquots were removed at various time points and analyzed by TLC. […] The contaminating enzyme in the antibody solution may have been removed during the purification of the Fab′ fragment.

13D11 [2] = assay: Effect of common protease inhibitors on the antibody-catalyzed reaction; assay type: biochemical, mouse; settings: inhibitor concentrations sufficient to abolish the respective proteases
Description: Extensive purification of 13D11 was carried out. Monoclonal antibodies were purified from ascites using standard procedures of lipid extraction and ammonium sulfate precipitation followed by column chromatography on protein A, DEAE, Mono Q, and finally Alkyl Superose (Pharmacia, Piscataway, N.J.). Finally, nine common inhibitors of known proteases were tested at concentrations sufficient to completely abolish all for their effect on the antibody-catalyzed reaction.

| Molecule | effect on amidolytic activity of 13D11 (13D11 [2]) | further results |
| --- | --- | --- |
| O=S(=O)(O)CCNC1CCCCC1 [CHES] | – | effect of buffer on hydrolysis of 10 by 13D11 (13D11 [1]; CHES buffer tried as an alternative to Tris): inhibit the hydrolysis |
| CC(=O)NCCCCCC(=O)NC(Cc1ccccc1)P(C)(=O)O (centres unmarked) [Compound 5] | – | Ki (13D11 [1]; 13D11 hydrolysis of 10, HPLC assay, read-out: inhibition constant, Ki): 14 µM; inhibition of esterase activity toward 11 in the 13D11 preparation (13D11 [1]; 25° C., MTEN): not inhibited; inhibition of 13D11 amidase activity toward 10 (13D11 [1]; hapten 5 0.5 mM, 5 days at 25° C., TLC): inhibition of its amidase activity; inhibition of amidase activities of 13D11 IgG and Fab′ (13D11 [1]; hapten 5 0.5 mM, dansylated amide 10): inhibited; inhibition of 13D11 by hapten enantiomers (13D11 [1]; hydrolysis of 10): inhibited 13D11 |
| CC(C)C[C@H](NC(=O)[C@H]1O[C@@H]1C(=O)O)C(=O)NCCCCN=C(N)N [Compound E-64] | Partial inhibition | – |
| O=C(O)CN(CCN(CC(=O)O)CC(=O)O)CC(=O)O [EDTA] | essentially unaffected | – |
| O=S(=O)(F)Cc1ccccc1 [PMSF] | essentially unaffected | – |
| CC(C)C[C@H](NC(=O)[C@@H](O)[C@H](N)Cc1ccccc1)C(=O)O [bestatin] | Partial inhibition | – |
| CC(=O)N[C@@H](CC(C)C)C(=O)N[C@@H](CC(C)C)C(=O)N[C@H](C=O)CCCNC(=N)N [leupeptin] | essentially unaffected | – |
| CC(C)CC(=O)N[C@H](C(=O)N[C@H](C(=O)N[C@@H](CC(C)C)[C@@H](O)CC(=O)N[C@@H](C)C(=O)N[C@@H](CC(C)C)[C@@H](O)CC(=O)O)C(C)C)C(C)C [pepstatin] (Isovaleryl-VV[Sta]A[Sta]-OH) | Partial inhibition | – |
| CC(C)C[C@H](NP(=O)(O)O[C@@H]1O[C@@H](C)[C@H](O)[C@@H](O)[C@H]1O)C(=O)N[C@@H](Cc1c[nH]c2ccccc12)C(=O)O [phosphoramidon] | essentially unaffected | – |
| aprotinin | essentially unaffected | – |
